Laboratory results reported in patent US20180127374A1, “BE[…] AS OPIOID RECEPTORS MODULATORS” (Purdue Pharma L.P., priority 2012, published 2018).
Where two headings read alike, the source gives them in different places.

Assays:
μ-opioid receptor [1] = target: T1, μ-opioid receptor (Homo sapiens, UniProt P35372); assay: μ-opioid receptor radioligand dose-displacement binding assay
Description: Radioligand dose-displacement binding assays for μ-opioid receptors used 0.3 nM [^3H]-diprenorphine (Perkin Elmer, Shelton, Conn.), with […] membrane protein/well in a final volume of […] binding buffer (10 mM MgCl2, 1 mM EDTA, 5% DMSO, 50 mM HEPES, pH 7.4). Reactions were carried out in the absence or presence of increasing concentrations of unlabeled naloxone. All reactions were conducted in 96-deep well polypropylene plates for 2 hr at room temperature. […] The data were analyzed using the one-site competition curve fitting functions in GraphPad PRISM™ v. 3.0 or higher (San Diego, Calif.), or an in-house function for one-site competition curve-fitting.
Target sequence in this assay (P35372 whole entry): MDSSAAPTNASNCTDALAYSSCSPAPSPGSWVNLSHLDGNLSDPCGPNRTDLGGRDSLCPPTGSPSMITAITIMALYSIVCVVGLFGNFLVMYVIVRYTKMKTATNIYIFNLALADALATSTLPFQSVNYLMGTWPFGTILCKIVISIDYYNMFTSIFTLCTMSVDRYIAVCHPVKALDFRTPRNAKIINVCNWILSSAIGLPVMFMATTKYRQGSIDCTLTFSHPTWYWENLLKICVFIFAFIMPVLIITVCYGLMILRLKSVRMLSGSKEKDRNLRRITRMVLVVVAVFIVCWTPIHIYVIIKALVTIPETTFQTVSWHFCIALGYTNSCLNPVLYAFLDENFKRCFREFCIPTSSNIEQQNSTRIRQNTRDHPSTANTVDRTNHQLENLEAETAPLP

δ opioid receptor = δ opioid receptor (Homo sapiens, UniProt P41143); assay: δ-opioid receptor radioligand dose-displacement binding assay
Sequence of δ opioid receptor (P41143 whole entry): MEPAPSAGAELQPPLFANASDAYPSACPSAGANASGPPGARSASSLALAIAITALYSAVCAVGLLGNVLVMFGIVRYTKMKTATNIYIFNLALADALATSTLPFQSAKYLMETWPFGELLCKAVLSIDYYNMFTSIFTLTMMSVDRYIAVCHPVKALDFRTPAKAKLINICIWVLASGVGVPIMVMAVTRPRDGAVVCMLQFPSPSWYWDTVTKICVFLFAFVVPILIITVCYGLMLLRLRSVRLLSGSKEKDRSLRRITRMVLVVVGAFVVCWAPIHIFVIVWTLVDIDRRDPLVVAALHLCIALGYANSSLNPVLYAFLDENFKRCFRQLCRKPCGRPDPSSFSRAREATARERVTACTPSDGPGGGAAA
Description: δ-opioid Receptor Binding Assay Procedures were conducted as follows. Radioligand dose-displacement assays used 0.3 nM [^3H]-Naltrindole (Perkin Elmer, Shelton, Conn.; 33.0 Ci/mmole) with 5 μg membrane protein (Perkin Elmer, Shelton, Conn.) in a final volume of 500 μl binding buffer (5 mM MgCl2, 5% DMSO, 50 mM Trizma base, pH 7.4). Non-specific binding was determined in the presence of 25 μM unlabeled naloxone. All reactions were performed in 96-deep well polypropylene plates for 1 hr at a temperature of about 25° C. Binding reactions were terminated by rapid filtration onto 96-well Unifilter GF/C filter plates (Perkin Elmer, Shelton, Conn.) presoaked in 0.5% polyethylenimine (Sigma). Harvesting was performed using a 96-well tissue harvester (Perkin Elmer, Shelton, Conn.) followed by five filtration washes with 500 μl ice-cold binding buffer. Filter plates were subsequently dried at 50° C. for 1-2 hours. Fifty μl/well scintillation cocktail (Perkin Elmer, Shelton, Conn.) was added and plates were counted in a Packard Top-Count for 1 min/well.

μ-opioid receptor [2] = target: T1, μ-opioid receptor; assay: μ-opioid receptor [35S]GTPγS functional assay; type: biochemical; parameters: purchased Perkin Elmer, Shelton, Conn
Target sequence in this assay (P35372 whole entry, species assumed): as the sequence (P35372 whole entry) above

κ opioid receptor [3] = target: T2, κ opioid receptor (Homo sapiens, UniProt P41145); assay: κ-opioid receptor radioligand dose displacement binding assay; parameters: expressed in transfected cells; host or cells: HEK-293
T2 sequence (P41145 whole entry): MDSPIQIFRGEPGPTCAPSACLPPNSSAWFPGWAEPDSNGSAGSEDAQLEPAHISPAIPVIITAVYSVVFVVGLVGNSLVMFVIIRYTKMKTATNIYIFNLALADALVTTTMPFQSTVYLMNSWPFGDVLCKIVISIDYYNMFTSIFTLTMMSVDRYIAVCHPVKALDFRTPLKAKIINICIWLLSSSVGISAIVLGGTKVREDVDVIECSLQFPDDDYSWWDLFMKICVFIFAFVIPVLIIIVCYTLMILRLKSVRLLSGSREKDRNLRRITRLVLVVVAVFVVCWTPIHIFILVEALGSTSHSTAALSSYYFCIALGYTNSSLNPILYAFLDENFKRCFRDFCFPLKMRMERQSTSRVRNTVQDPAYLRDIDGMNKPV

κ opioid receptor [4] = target: T2, κ opioid receptor; assay: κ-opioid receptor [35S]GTPγS functional assay; type: biochemical; parameters: expressed in transfected cells; conditions: for Emax: relative to the effect elicited by U69,593
[5] = target: T3, human opioid receptor-like receptor (ORL-1) (Homo sapiens, UniProt P41146); assay: ORL-1 receptor radioligand binding assay
T3 construct: host or cells: HEK-293
T3 sequence (P41146 whole entry): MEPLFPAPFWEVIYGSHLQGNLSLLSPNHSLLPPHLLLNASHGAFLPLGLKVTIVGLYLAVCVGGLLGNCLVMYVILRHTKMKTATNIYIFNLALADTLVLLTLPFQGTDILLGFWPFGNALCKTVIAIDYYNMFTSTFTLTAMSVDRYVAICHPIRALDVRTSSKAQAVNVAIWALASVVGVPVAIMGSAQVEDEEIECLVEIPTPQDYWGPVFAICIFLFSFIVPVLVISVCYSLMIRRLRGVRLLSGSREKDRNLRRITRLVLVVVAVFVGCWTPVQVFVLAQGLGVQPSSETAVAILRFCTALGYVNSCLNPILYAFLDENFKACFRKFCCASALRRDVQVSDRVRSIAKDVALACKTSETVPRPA
Description: Membranes from recombinant HEK-293 cells expressing the human opioid receptor-like receptor (ORL-1) (Perkin Elmer, Shelton, Conn.) were prepared by lysing cells in ice-cold hypotonic buffer (2.5 mM MgCl2, 50 mM HEPES, pH 7.4) (10 ml/10 cm dish) followed by homogenization with a tissue grinder/Teflon pestle. Membranes were collected by centrifugation at 30,000×g for 15 min at 4° C. and pellets resuspended in hypotonic buffer to a final concentration of 1-3 mg/ml. Protein concentrations were determined using the BioRad protein assay reagent with bovine serum albumen as standard. Aliquots of the ORL-1 receptor membranes were stored at −80° C.
The data from screening and dose-displacement experiments were analyzed using Microsoft Excel and the curve fitting functions in GraphPad PRISM™, v. 3.0 or higher, respectively, or an in-house function for one-site competition curve-fitting.

Row | SMILES | Ki (μ-opioid receptor [1]) | Ki (δ opioid receptor) | EC50 (μ-opioid receptor [2]) | Ki (κ opioid receptor [3]) | EC50 (κ opioid receptor [4]) | Emax (κ opioid receptor [4]) | Ki [5] | Ki (μ-opioid receptor [1]; [3H]-diprenorphine displacement, read-out: Ki (nM) Opioid Receptor μ) | Emax (μ-opioid receptor [2]; relative to the effect elicited by DAMGO) | EC50 (μ-opioid receptor [2]; μ-receptor membranes, read-out: GTPγS μ EC50) | Ki (κ opioid receptor [3]; [3H]-U69,593 displacement, HEK-293 membranes, read-out: Ki (nM) Opioid Receptor κ) | EC50 (κ opioid receptor [4]; κ membrane protein (in-house), read-out: GTPγS κ EC50) | Ki ([5]; [3H]-nociceptin displacement, HEK-293 membranes, read-out: Ki (nM) ORL-1)
1 | COc1ccc2c(c1)[C@@]1(CCC[C@H](O)CO)CCN(CC3CC3)C(C2)[C@@H]1C [Compound 11, (2S)-5-((6S,11R)-3-(cyclopropylmethyl)-8-methoxy-11-methyl-1,2,3,4,5,6-hexahydro-2,6-methanobenzo[d]azocin-6-yl)pentane-1,2-diol] | 235 ± 17.3 nM | 4980 ± 456 nM | > 20000 nM | 3.23 ± 0.5 nM | 210 nM | 81% | 13100 ± 1060 nM |  |  |  |  |  | 
2 | COC(=O)[C@H](C)NC(=O)CCC[C@]12CCN(CC3CC3)[C@H](Cc3ccc(O)cc31)[C@@H]2C [Compound 21, (S)-methyl 2-(4-((2R,6R,11R)-3-(cyclopropylmethyl)-8-hydroxy-11-methyl-1,2,3,4,5,6-hexahydro-2,6-methanobenzo[d]azocin-6-yl)butanamido)propanoate] |  | 8.81 ± 0.71 nM |  |  |  | 67.5% |  | 5.05 ± 1.34 nM | 36.7% | 5.45 nM | 0.13 ± 0.02 nM | 9.72 nM | 2430 ± 718 nM
